Tested on: SARS-CoV-2 B.1.1.7
Assay: microbe, parasite or virus in culture
Type: cell-based

**Q.** For CN1CCCC(n2nc(Cc3ccc(Cl)cc3)c3ccccc3c2=O)CC1 (stereo not shown) [Azelastine, 4-[(4-chlorophenyl)methyl]-2-(1-methylazepan-4-yl)phthalazin-1-one], which inhibition of infection is on record?
**A.** over 90%

— patent US11273163B2, “Antiviral treatment” (priority 2020, dated 2022)
